Results reported in patent US20170266257A1, “METHODS OF TREATING TRAUMATIC BRAIN INJURY” (OXEIA BIOPHARMACEUTICALS, INC., priority 2014, published 2017).

What was measured:
GHS-R = GHS-R (Homo sapiens, UniProt Q92847); assay: cell based assay of GHS-R antagonist activity (Table 4)
ischemic brain injury = conditions: after ischemic brain injury; cited from earlier work
[1] = test system: rat model of Parkinson's disease; conditions: cited from earlier work

GHS-R, sequence (Q92847 whole entry): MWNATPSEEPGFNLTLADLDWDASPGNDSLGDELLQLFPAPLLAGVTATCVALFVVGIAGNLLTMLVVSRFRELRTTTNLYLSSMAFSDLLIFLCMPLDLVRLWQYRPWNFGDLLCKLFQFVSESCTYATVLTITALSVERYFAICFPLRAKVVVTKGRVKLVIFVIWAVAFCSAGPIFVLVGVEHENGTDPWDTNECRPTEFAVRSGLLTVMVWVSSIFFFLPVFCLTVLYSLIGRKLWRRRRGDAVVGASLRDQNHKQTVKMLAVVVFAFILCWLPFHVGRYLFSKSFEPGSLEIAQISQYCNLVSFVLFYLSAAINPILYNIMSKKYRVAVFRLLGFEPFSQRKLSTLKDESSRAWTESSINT

| Compound | Ki (GHS-R) | neuroprotection (ischemic brain injury) | motor function [1] |
| --- | --- | --- | --- |
| CCN(CC)CCCS(=O)(=O)N[C@H](CCc1ccccc1)c1nc(-c2cncn2C)n[nH]1 [Compound 135] | < 0.1 µM |  |  |
| 3-Diethylamino-propane-1-sulfonic acid {(R)-1-[3-(5-bromo-pyridin-3-yl)-[1,2,4]oxadiazol-5-yl]-phenyl-propyl}-amide [Compound 103] | 0.1 to 0.5 µM |  |  |
| C=CC[C@]12CCCN1C(=O)CNC2=O [NNZ-2591, cyclo-L-glycyl-L-2-allylproline] |  | neuroprotective | improves motor function |
